Experiment [1] concerns the target T1, Furin (108-574-Tev-Flag-His) enzyme (Homo sapiens, UniProt P09958).
T1 construct: Furin (108-574-Tev-Flag-His) enzyme was expressed and purified from CHO cells; TEV cleavage site (C); FLAG (C); His (C); made in house; host or cells: CHO cells
Nature of the experiment: Furin enzyme assay. The experiment is classed as biochemical. The essentials:
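Compounds ran as 11-point threefold dilutions (0.00017–10 μM final) against 40 pM furin, purified from CHO cells, for 2 h at room temperature. Buffer: 100 mM HEPES pH7.5 with 1 mM CaCl2 and 0.005% Triton X-100. Envision readout. Four-parameter curve gives pXC50.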

Experiment [2] has as its target T2, furin (endogenous protease) in U20S cells (Homo sapiens, UniProt P09958).
T2 construct: the endogenous protease cleaves GFP; endogenous in cells; host or cells: U2OS cells transduced with a BacMam reporter
Nature of the experiment: Furin cell-based assay (image-based, Golgi-targeted GFP with BMP10 furin/PCSK cleavage site).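 Also: Read-out is mean GFP fluorescence of Golgi puncta per cell by high-content imaging, retained when furin inhibited, over an eleven-point 0.00017–10 µM series, four-parameter fit.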 To be noted: 24-hour incubation, read-out: furin golgi cell pXC50 (converted).
Experimental: This assay uses an image-based platform to evaluate the intracellular activity of compounds of the invention. Reactions were performed in black 384-well, tissue culture-treated, clear bottom plates (Greiner). Compounds under analysis were dissolved in DMSO (1.0 mM) and serially diluted 1 to 3 with DMSO through eleven dilutions. This creates a final compound concentration range from 0.00017 to 10 μM, and 0.1 μL of each concentration was transferred to the corresponding well of the assay plate. Assays were initiated by the addition of U20S cells simultaneously transduced with a BacMam-delivered construct containing a Golgi-targeting sequence followed by a 12-amino acid furin/PCSK cleavage site from Bone Morphogenic Protein 10 (BMP10) and then GFP at the C terminus. […] Briefly, frozen cells are thawed in assay media (Dulbecco's Modified Eagles Medium Nutritional Mixture F-12 (Ham) without phenol red containing 5% FBS) and diluted to deliver 6000 cells/well (50 μL) to the plate using a Multidrop Combi (Thermo).
After a 24-hour incubation period at 37° C., the cells are stained with Cell Mask Deep Red, fixed in paraformaldehyde and the nuclei stained using Ho33342. The Golgi-targeted GFP forms bright punctate clusters within the cell. In the absence of a furin inhibitor, the endogenous protease cleaves GFP from its N-acetylgalactosaminyltransferase-2 Golgi tether, releasing GFP into the Golgi lumen where fluorescence is diluted below the threshold of assay sensitivity. […] Cellular GFP intensity is determined by image-based acquisition (Incell 2200, Perkin Elmer) at 40× magnification with 4 fields measured per well. Multi-scale tophat segmentation is used to identify the GFP-tagged puncta and to quantitate the average fluorescence of all puncta on a per cell basis. Cellular toxicity is determined in parallel.
Data were analyzed using AbaseXE 7.3, utilizing a four-parameter curve fit equation. The following values were used to define limits and/or constraints for each of the four parameters: • Minimum—limit −10 to 10 • Maximum—90 to 110 • Slope—limit 0.5 to 2.0 • pXC50 confidence interval—10
Raw counts obtained from the respective plate reader (Perkin Elmer) were captured for data analysis. Curves were generated using the equation: Y=A+[(B−A)/(1+(10^C/x)^D)] • where: A=minimum response • B=maximum response • C=log 10*XC50 • D=slope factor • x=log 10 compound concentration [M]
The results were recorded as pXC50 values (−C in the above equation)

Here are results for 18 molecules from patent US11773078B2, “Furin inhibitors” (Glaxosmithkline Intellectual Property Development Limited, priority 2018, dated 2023).

Each structure is given as a SMILES string. Counter-ions that a name gives are not always drawn.

T1 sequence (P09958 108-574): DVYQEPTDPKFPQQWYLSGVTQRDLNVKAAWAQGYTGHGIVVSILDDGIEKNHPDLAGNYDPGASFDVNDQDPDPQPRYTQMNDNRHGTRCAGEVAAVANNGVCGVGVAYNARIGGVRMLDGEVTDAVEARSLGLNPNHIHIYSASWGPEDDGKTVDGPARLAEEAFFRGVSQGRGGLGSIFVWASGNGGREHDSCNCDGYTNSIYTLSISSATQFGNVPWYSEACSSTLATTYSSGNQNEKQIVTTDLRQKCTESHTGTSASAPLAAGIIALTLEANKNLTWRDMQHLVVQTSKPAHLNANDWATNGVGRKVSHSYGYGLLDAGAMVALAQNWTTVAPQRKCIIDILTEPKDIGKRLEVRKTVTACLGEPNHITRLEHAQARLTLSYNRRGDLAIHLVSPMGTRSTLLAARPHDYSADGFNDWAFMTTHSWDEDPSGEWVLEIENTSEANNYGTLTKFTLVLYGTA
T2 sequence (P09958 108-794): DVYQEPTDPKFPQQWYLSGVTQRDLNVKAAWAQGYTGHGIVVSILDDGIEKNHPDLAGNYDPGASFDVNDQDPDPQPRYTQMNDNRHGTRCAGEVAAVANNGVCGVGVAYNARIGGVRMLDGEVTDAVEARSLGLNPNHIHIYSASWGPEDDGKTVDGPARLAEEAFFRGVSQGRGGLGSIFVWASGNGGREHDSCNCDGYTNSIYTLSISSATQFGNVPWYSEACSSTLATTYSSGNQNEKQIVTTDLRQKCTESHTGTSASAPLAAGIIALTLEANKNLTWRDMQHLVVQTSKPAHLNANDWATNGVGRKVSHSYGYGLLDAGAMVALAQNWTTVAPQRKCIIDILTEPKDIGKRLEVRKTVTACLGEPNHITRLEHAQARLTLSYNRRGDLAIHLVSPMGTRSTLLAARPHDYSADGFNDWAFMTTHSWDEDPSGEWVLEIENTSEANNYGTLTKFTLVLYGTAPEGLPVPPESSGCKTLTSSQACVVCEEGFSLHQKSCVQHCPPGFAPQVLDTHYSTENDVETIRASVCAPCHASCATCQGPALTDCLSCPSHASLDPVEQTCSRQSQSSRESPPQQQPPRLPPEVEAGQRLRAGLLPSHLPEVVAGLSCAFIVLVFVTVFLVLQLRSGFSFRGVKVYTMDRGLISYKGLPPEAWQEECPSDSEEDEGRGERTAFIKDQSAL

For the molecule `CN1C[C@@H]2C[C@H]1CN2c1ncc(Oc2cc(CN3CCC(CC(=O)O)CC3)cc(-c3cc(Cl)cc(Cl)c3)n2)cn1` [Example 231, 2-(1-((2-(3,5-dichlorophenyl)-6-((2-((1S,4S)-5-methyl-2,5-diazabicyclo[2.2.1]heptan-2-yl)pyrimidin-5-yl)oxy)pyridin-4-yl)methyl)piperidin-4-yl)acetic acid], the “furin enzyme pIC50” value in experiment [1] amounted to 8.5. The EC50 in experiment [2] was 10 nM.

Turning to `NC(=O)CCN1CCN(Cc2cc(Oc3cnc(N4CCN(CCC(=O)O)CC4)nc3)nc(-c3cc(Cl)cc(Cl)c3)c2)CC1` [Example 78, 3-(4-(5-((4-((4-(3-Amino-3-oxopropyl)piperazin-1-yl)methyl)-6-(3,5-dichlorophenyl)pyridin-2-yl)oxy)pyrimidin-2-yl)piperazin-1-yl)propanoic acid], the “furin enzyme pIC50” value in experiment [1] was found to be 8. The EC50 in experiment [2] is 63.1 nM.

`CC(=O)NCC1CCN(Cc2cc(Oc3cnc(N4CCN(CCC(=O)O)CC4)c(F)c3)nc(-c3cc(Cl)cc(Cl)c3)c2)CC1` [Example 266, 3-(4-(5-((4-((4-(acetamidomethyl)piperidin-1-yl)methyl)-6-(3,5-dichlorophenyl)pyridin-2-yl)oxy)-3-fluoropyridin-2-yl)piperazin-1-yl)propanoic acid]: the “furin enzyme pIC50” value in experiment [1] worked out at 8.7. The EC50 in experiment [2] was 50.1 nM.

As for `CCN1CCCN(c2cnc(Oc3cc(CN4CCC(CC(=O)O)CC4)cc(-c4cc(Cl)cc(Cl)c4)n3)cn2)CC1` [Example 345, 2-(1-((2-(3,5-dichlorophenyl)-6-((5-(4-ethyl-1,4-diazepan-1-yl)pyrazin-2-yl)oxy)pyridin-4-yl)methyl)piperidin-4-yl)acetic acid], the “furin enzyme pIC50” value in experiment [1] came out at 8.6. Moreover, in experiment [2], the EC50 was 12.6 nM.

As for `CCN1CCN(c2ncc(Oc3cc(CN4CCC(CC(=O)O)CC4)cc(-c4cc(Cl)cc(Cl)c4)n3)cn2)CC1` [Example 234, 2-(1-((2-(3,5-Dichlorophenyl)-6-((2-(4-ethylpiperazin-1-yl)pyrimidin-5-yl)oxy)pyridin-4-yl)methyl)piperidin-4-yl)acetic acid], the “furin enzyme pIC50” value in experiment [1] is listed as 10.7. The EC50 in experiment [2] was 10 nM.

For `CNC(=O)NCC1(O)CCN(Cc2cc(Oc3ccc(N4CCNCC4)nc3)nc(-c3cc(Cl)cc(Cl)c3)c2)CC1` [Example 5, 1-((1-((2-(3,5-Dichlorophenyl)-6-((6-(piperazin-1-yl)pyridin-3-yl)oxy)pyridin-4-yl)methyl)-4-hydroxypiperidin-4-yl)methyl)-3-methylurea, 4 hydrochloride], in experiment [1], the “furin enzyme pIC50” value is 9.1. The EC50 in experiment [2] was 63.1 nM.

For `COC(=O)NCC1CCN(Cc2cc(Oc3cnc(N4CCN(CCO)CC4)nc3)nc(-c3cc(Cl)cc(Cl)c3)c2)CC1` [Example 311, methyl ((1-((2-(3,5-dichlorophenyl)-6-((2-(4-(2-hydroxyethyl)piperazin-1-yl)pyrimidin-5-yl)oxy)pyridin-4-yl)methyl)piperidin-4-yl)methyl)carbamate], the “furin enzyme pIC50” value in experiment [1] is recorded as 8.9. In addition, the EC50 in experiment [2] was 15.8 nM.

For `NC1(CCO)CCN(c2ncc(Oc3cc(CN4CCC(CC(=O)O)CC4)cc(-c4cc(Cl)cc(Cl)c4)n3)cn2)CC1` [Example 124, 2-(1-((2-((2-(4-amino-4-(2-hydroxyethyl)piperidin-1-yl)pyrimidin-5-yl)oxy)-6-(3,5-dichlorophenyl)pyridin-4-yl)methyl)piperidin-4-yl)acetic acid], the “furin enzyme pIC50” value in experiment [1] worked out at 8.8. The EC50 in experiment [2] was 20 nM.

Take `CC(=O)NCC1CCN(Cc2cc(Oc3cnc(N4CCN(C)CC4)nc3)nc(-c3cc(Cl)cc(Cl)c3)c2)CC1` [Example 64, N-((1-((2-(3,5-dichlorophenyl)-6-((2-(4-methylpiperazin-1-yl)pyrimidin-5-yl)oxy)pyridin-4-yl)methyl)piperidin-4-yl)methyl)acetamide]: the “furin enzyme pIC50” value in experiment [1] worked out at 9.1. Besides, the EC50 in experiment [2] is 10 nM.

Consider `Cc1nc(N2CCN(C)CC2)ncc1Oc1nc(-c2cc(Cl)cc(Cl)c2)cc(CN2CCC(CC(=O)O)CC2)c1F` [Example 380, 2-(1-((6-(3,5-dichlorophenyl)-3-fluoro-2-((4-methyl-2-(4-methylpiperazin-1-yl)pyrimidin-5-yl)oxy)pyridin-4-yl)methyl)piperidin-4-yl)acetic acid], for which the “furin enzyme pIC50” value in experiment [1] is given as 9.6. For the same molecule, the EC50 in experiment [2] is 63.1 nM.

Turning to `NC(=O)OCCN1CCN(Cc2cc(Oc3ccc(N4CCN(CCC(=O)O)CC4)nc3)nc(-c3cc(Cl)cc(Cl)c3)c2)CC1` [Example 55, 3-(4-(5-((4-((4-(2-(carbamoyloxy)ethyl)piperazin-1-yl)methyl)-6-(3,5-dichlorophenyl)pyridin-2-yl)oxy)pyridin-2-yl)piperazin-1-yl)propanoic acid], in experiment [1], the “furin enzyme pIC50” value is 8.2. Also, the EC50 in experiment [2] is 251 nM.

With `CNC(=O)NCC1CCN(Cc2cc(Oc3cnc(N4CCN(CCO)CC4)nc3)cc(-c3cc(Cl)cc(Cl)c3)c2)CC1` [Example 313, 1-((1-((3′,5′-dichloro-5-((2-(4-(2-hydroxyethyl)piperazin-1-yl)pyrimidin-5-yl)oxy)-[1,1′-biphenyl]-3-yl)methyl)piperidin-4-yl)methyl)-3-methylurea], the IC50 in experiment [1] (read-out: furin enzyme pIC50 (converted)) was less than 0.158 nM. In addition, the EC50 in experiment [2] was 15.8 nM.

For `CC(=O)NCC1CCN(Cc2cc(Oc3ccc(N4CC[C@@H](N)[C@@H](F)C4)nc3)nc(-c3cc(Cl)cc(Cl)c3)c2)CC1` (relative stereo) [Example 182], in experiment [1], the “furin enzyme pIC50” value is reported as 9.3. Also, the EC50 in experiment [2] is 1.58 nM.

On to `CN1CCN(c2ncc(N(C)c3cc(CN4CCC(CC(=O)O)CC4)cc(-c4cc(Cl)cc(Cl)c4)n3)cn2)CC1` [Example 388, 2-(1-((2-(3,5-Dichlorophenyl)-6-(methyl(2-(4-methylpiperazin-1-yl)pyrimidin-5-yl)amino)pyridin-4-yl)methyl)piperidin-4-yl)acetic acid, 4 hydrochloride], for which the “furin enzyme pIC50” value in experiment [1] worked out at 8.1. In addition, the EC50 in experiment [2] was 50.1 nM.

In the case of `COCCN1CCN(c2ccc(Oc3cc(CN4CCC(CNC(C)=O)CC4)cc(-c4cc(Cl)cc(Cl)c4)n3)cn2)CC1` [Example 250, N-((1-((2-(3,5-dichlorophenyl)-6-((6-(4-(2-methoxyethyl)piperazin-1-yl)pyridin-3-yl)oxy)pyridin-4-yl)methyl)piperidin-4-yl)methyl)acetamide], in experiment [1], the “furin enzyme pIC50” value is listed as 8.9. Also, the EC50 in experiment [2] is less than 0.794 nM.

For `CC(C)N1CCN(c2cnc(Oc3cc(CN4CCC(CC(=O)O)CC4)cc(-c4cc(Cl)cc(Cl)c4)n3)cn2)CC1` [Example 347, 2-(1-((2-(3,5-dichlorophenyl)-6-((5-(4-isopropylpiperazin-1-yl)pyrazin-2-yl)oxy)pyridin-4-yl)methyl)piperidin-4-yl)acetic acid], in experiment [1], the “furin enzyme pIC50” value is on record as 8.5. Further, in experiment [2], the EC50 is 15.8 nM.

Consider `CC(=O)NCC1CCN(Cc2cc(Oc3ccc(N4CCN(CCc5nnn[nH]5)CC4)nc3)nc(-c3cc(Cl)cc(Cl)c3)c2)CC1` [Example 14, N-((1-((2-((6-(4-(2-(1H-Tetrazol-5-yl)ethyl)piperazin-1-yl)pyridin-3-yl)oxy)-6-(3,5-dichlorophenyl)pyridin-4-yl)methyl)piperidin-4-yl)methyl)acetamide, 4 hydrochloride], for which, in experiment [1], the “furin enzyme pIC50” value is reported as 9.5. Moreover, in experiment [2], the EC50 is 631 nM.

On to `CC(=O)NCC1CCN(Cc2cc(Oc3cnc(N4CCN(C[C@@H](C)O)CC4)nc3)nc(-c3cc(Cl)cc(Cl)c3)c2)CC1` [Example 302], for which the “furin enzyme pIC50” value in experiment [1] is 9.6. For the same molecule, in experiment [2], the EC50 is 7.94 nM.
